Results from PubChem BioAssay AID1963839 (Molecular Pharmacology Branch, DTP, NCI, 2024).

Tested on: 817829-284-R-J1-PDC complex spheroid viability
Assay: Anticancer human tumor 817829-284-R-J1-PDC patient-derived colon adenocarcinoma cell line growth inhibition [POLQ]
Conditions: for IC50: curve of first compound; for viability, T/C: stronger effect = lower value
Procedure, shortened: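 Patient-derived tumour cells were co-cultured with HUVEC and mesenchymal stem cells as multicellular spheroids at 37 °C. They were treated with POLQ inhibitors (novobiocin, ART-558, RP6685) alone or combined with other agents. Top concentrations were at or near clinical Cmax (otherwise 10 microM; SN-38 at 1 microM), decreasing in half-log steps.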

[1] = second compound 0.0316 µM, first compound 0.00316 µM
[2] = second compound 0.0316 µM, first compound 0.01 µM
[3] = second compound 0.0316 µM, first compound 0.0316 µM
[4] = second compound 0.0316 µM, first compound 0.1 µM
[5] = second compound 0.1 µM, first compound 0.00316 µM
[6] = second compound 0.1 µM, first compound 0.01 µM
[7] = second compound 0.1 µM, first compound 0.0316 µM
[8] = second compound 0.1 µM, first compound 0.1 µM
[9] = second compound 0.316 µM, first compound 0.00316 µM
[10] = second compound 0.316 µM, first compound 0.01 µM
[11] = second compound 0.316 µM, first compound 0.0316 µM
[12] = second compound 0.316 µM, first compound 0.1 µM
[13] = second compound 1 µM, first compound 0.00316 µM
[14] = second compound 1 µM, first compound 0.01 µM
[15] = second compound 1 µM, first compound 0.0316 µM
[16] = second compound 1 µM, first compound 0.1 µM
[17] = second compound 3.16 µM, first compound 0.00316 µM
[18] = second compound 3.16 µM, first compound 0.01 µM
[19] = second compound 3.16 µM, first compound 0.0316 µM
[20] = second compound 3.16 µM, first compound 0.1 µM
[21] = second compound 10 µM, first compound 0.00316 µM
[22] = second compound 10 µM, first compound 0.01 µM
[23] = second compound 10 µM, first compound 0.0316 µM
[24] = second compound 10 µM, first compound 0.1 µM
[25] = second compound 0.0316 µM, first compound 0.316 µM
[26] = second compound 0.0316 µM, first compound 1 µM
[27] = second compound 0.1 µM, first compound 0.316 µM
[28] = second compound 0.1 µM, first compound 1 µM
[29] = second compound 0.316 µM, first compound 0.316 µM
[30] = second compound 0.316 µM, first compound 1 µM
[31] = second compound 1 µM, first compound 0.316 µM
[32] = second compound 1 µM, first compound 1 µM
[33] = second compound 3.16 µM, first compound 0.316 µM
[34] = second compound 3.16 µM, first compound 1 µM
[35] = second compound 10 µM, first compound 0.316 µM
[36] = second compound 10 µM, first compound 1 µM
[37] = second compound 0.0316 µM, first compound 3.16 µM
[38] = second compound 0.0316 µM, first compound 10 µM
[39] = second compound 0.1 µM, first compound 3.16 µM
[40] = second compound 0.1 µM, first compound 10 µM
[41] = second compound 0.316 µM, first compound 3.16 µM
[42] = second compound 0.316 µM, first compound 10 µM
[43] = second compound 1 µM, first compound 3.16 µM
[44] = second compound 1 µM, first compound 10 µM
[45] = second compound 3.16 µM, first compound 3.16 µM
[46] = second compound 3.16 µM, first compound 10 µM
[47] = second compound 10 µM, first compound 3.16 µM
[48] = second compound 10 µM, first compound 10 µM
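Note: spheroids exposed to compounds for 7 days.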
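Throughout, for viability, T/C: 100% = DMSO vehicle-treated spheroids.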

CC[C@@]1(O)C(=O)OCc2c1cc1n(c2=O)Cc2cc3c(CN(C)C)c(O)ccc3nc2-1 + Cc1cccc(N(C)C(=O)C2C(O)CCN2c2nc(C)cc(C(F)(F)F)c2C#N)c1 showed an IC50 (second compound 0.0316 µM) of 6.93 nM, an IC50 (second compound 0.1 µM) of 7.54 nM and an IC50 (second compound 0.316 µM) of 8.14 nM. The IC50 (second compound 1 µM) was 6.95 nM, the IC50 (second compound 3.16 µM) was 7.21 nM and the IC50 (second compound 10 µM) was 6.98 nM. For the same molecule, the viability, T/C (second compound 0.0316 µM, first compound 0.000316 µM) was 109%, the viability, T/C (second compound 0.0316 µM, first compound 0.001 µM) was 121% and the viability, T/C [1] was 78.5%. It also gave a viability, T/C [2] of 38%, a viability, T/C [3] of 22.6% and a viability, T/C [4] of 18.1%. The viability, T/C (second compound 0.1 µM, first compound 0.000316 µM) was 87.9%, the viability, T/C (second compound 0.1 µM, first compound 0.001 µM) was 118% and the viability, T/C [5] was 72.8%. For the same molecule, the viability, T/C [6] was 43.6%, the viability, T/C [7] was 23.5% and the viability, T/C [8] was 17.4%. It also gave a viability, T/C (second compound 0.316 µM, first compound 0.000316 µM) of 103%, a viability, T/C (second compound 0.316 µM, first compound 0.001 µM) of 96.8% and a viability, T/C [9] of 61.6%. For the same molecule, the viability, T/C [10] was 54.1%, the viability, T/C [11] was 20% and the viability, T/C [12] was 15.3%. It also gave a viability, T/C (second compound 1 µM, first compound 0.000316 µM) of 124%, a viability, T/C (second compound 1 µM, first compound 0.001 µM) of 84.9% and a viability, T/C [13] of 76.2%. For the same molecule, the viability, T/C [14] was 38.9%, the viability, T/C [15] was 22% and the viability, T/C [16] was 17.2%. The viability, T/C (second compound 3.16 µM, first compound 0.000316 µM) was 89.7%, the viability, T/C (second compound 3.16 µM, first compound 0.001 µM) was 123% and the viability, T/C [17] was 83.2%. It also gave a viability, T/C [18] of 37.2%, a viability, T/C [19] of 21.4% and a viability, T/C [20] of 16.8%. It also gave a viability, T/C (second compound 10 µM, first compound 0.000316 µM) of 89.5%, a viability, T/C (second compound 10 µM, first compound 0.001 µM) of 113% and a viability, T/C [21] of 82.7%. It also gave a viability, T/C [22] of 34.8%, a viability, T/C [23] of 22.2% and a viability, T/C [24] of 14.6%.
In the case of CCc1c2c(nc3ccc(O)cc13)-c1cc3c(c(=O)n1C2)COC(=O)[C@]3(O)CC + Cc1cccc(N(C)C(=O)C2C(O)CCN2c2nc(C)cc(C(F)(F)F)c2C#N)c1, the IC50 (second compound 0.0316 µM) is reported as under 3.16 nM, the IC50 (second compound 0.1 µM) is reported as under 3.16 nM and the IC50 (second compound 0.316 µM) is reported as under 3.16 nM. For the same molecule, the IC50 (second compound 1 µM) was under 3.16 nM, the IC50 (second compound 3.16 µM) was under 3.16 nM and the IC50 (second compound 10 µM) was under 3.16 nM. For the same molecule, the viability, T/C [1] was 25.3%, the viability, T/C [2] was 19% and the viability, T/C [3] was 13.3%. The viability, T/C [4] was 7.02%, the viability, T/C [25] was 5.47% and the viability, T/C [26] was 2.88%. The viability, T/C [5] was 24.9%, the viability, T/C [6] was 16.9% and the viability, T/C [7] was 11.1%. It also gave a viability, T/C [8] of 8.13%, a viability, T/C [27] of 5.27% and a viability, T/C [28] of 3.6%. It also gave a viability, T/C [9] of 16.9%, a viability, T/C [10] of 15.3% and a viability, T/C [11] of 11.9%. For the same molecule, the viability, T/C [12] was 9.03%, the viability, T/C [29] was 5.25% and the viability, T/C [30] was 3.06%. For the same molecule, the viability, T/C [13] was 24.7%, the viability, T/C [14] was 18.8% and the viability, T/C [15] was 11.3%. The viability, T/C [16] was 5.74%, the viability, T/C [31] was 5.46% and the viability, T/C [32] was 3.33%. It also gave a viability, T/C [17] of 19.6%, a viability, T/C [18] of 15.9% and a viability, T/C [19] of 12.5%. The viability, T/C [20] was 8.19%, the viability, T/C [33] was 4.73% and the viability, T/C [34] was 2.56%. The viability, T/C [21] was 20.8%, the viability, T/C [22] was 17% and the viability, T/C [23] was 11.3%. For the same molecule, the viability, T/C [24] was 7.07%, the viability, T/C [35] was 5.05% and the viability, T/C [36] was 2.83%.
Molecule Nc1ccn(C2OC(CO)C(O)C2(F)F)c(=O)n1 (stereo not drawn) + Cc1cccc(N(C)C(=O)C2C(O)CCN2c2nc(C)cc(C(F)(F)F)c2C#N)c1 has an IC50 (second compound 0.0316 µM) of under 31.6 nM, an IC50 (second compound 0.1 µM) of under 31.6 nM and an IC50 (second compound 0.316 µM) of under 31.6 nM. The IC50 (second compound 1 µM) was under 31.6 nM, the IC50 (second compound 3.16 µM) was under 31.6 nM and the IC50 (second compound 10 µM) was under 31.6 nM. It also gave a viability, T/C [3] of 4.93%, a viability, T/C [4] of 6.34% and a viability, T/C [25] of 5.78%. The viability, T/C [26] was 4.47%, the viability, T/C [37] was 4.13% and the viability, T/C [38] was 3%. For the same molecule, the viability, T/C [7] was 5.1%, the viability, T/C [8] was 4.91% and the viability, T/C [27] was 5.63%. It also gave a viability, T/C [28] of 4.62%, a viability, T/C [39] of 3.58% and a viability, T/C [40] of 2.89%. It also gave a viability, T/C [11] of 6.1%, a viability, T/C [12] of 5.35% and a viability, T/C [29] of 5.35%. For the same molecule, the viability, T/C [30] was 5.17%, the viability, T/C [41] was 4.11% and the viability, T/C [42] was 2.77%. For the same molecule, the viability, T/C [15] was 4.92%, the viability, T/C [16] was 5.99% and the viability, T/C [31] was 4.9%. For the same molecule, the viability, T/C [32] was 4.77%, the viability, T/C [43] was 3.54% and the viability, T/C [44] was 2.95%. For the same molecule, the viability, T/C [19] was 5.03%, the viability, T/C [20] was 5.55% and the viability, T/C [33] was 6.02%. It also gave a viability, T/C [34] of 4.31%, a viability, T/C [45] of 4.69% and a viability, T/C [46] of 3.24%. For the same molecule, the viability, T/C [23] was 6.79%, the viability, T/C [24] was 5.07% and the viability, T/C [35] was 5.13%. It also gave a viability, T/C [36] of 4.16%, a viability, T/C [47] of 4.17% and a viability, T/C [48] of 2.99%.
With O=C(c1cc(Cc2n[nH]c(=O)c3ccccc23)ccc1F)N1CCN(C(=O)C2CC2)CC1 + Cc1cccc(N(C)C(=O)C2C(O)CCN2c2nc(C)cc(C(F)(F)F)c2C#N)c1 the IC50 (second compound 0.0316 µM) was 4010 nM, the IC50 (second compound 0.1 µM) was 1860 nM and the IC50 (second compound 0.316 µM) was 2630 nM. For the same molecule, the IC50 (second compound 1 µM) was 2910 nM, the IC50 (second compound 3.16 µM) was 3650 nM and the IC50 (second compound 10 µM) was 4540 nM. For the same molecule, the viability, T/C [3] was 75.4%, the viability, T/C [4] was 97.7% and the viability, T/C [25] was 89.7%. The viability, T/C [26] was 69.4%, the viability, T/C [37] was 59.6% and the viability, T/C [38] was 21.8%. It also gave a viability, T/C [7] of 84.1%, a viability, T/C [8] of 75.5% and a viability, T/C [27] of 93.3%. It also gave a viability, T/C [28] of 60.7%, a viability, T/C [39] of 42.4% and a viability, T/C [40] of 28.9%. It also gave a viability, T/C [11] of 119%, a viability, T/C [12] of 61.2% and a viability, T/C [29] of 78.2%. The viability, T/C [30] was 82.7%, the viability, T/C [41] was 44.5% and the viability, T/C [42] was 26.3%. It also gave a viability, T/C [15] of 104%, a viability, T/C [16] of 100% and a viability, T/C [31] of 74.2%. For the same molecule, the viability, T/C [32] was 66.4%, the viability, T/C [43] was 54.2% and the viability, T/C [44] was 26.6%. For the same molecule, the viability, T/C [19] was 108%, the viability, T/C [20] was 111% and the viability, T/C [33] was 81.6%. It also gave a viability, T/C [34] of 64.4%, a viability, T/C [45] of 60.3% and a viability, T/C [46] of 30.2%. The viability, T/C [23] was 115%, the viability, T/C [24] was 87.6% and the viability, T/C [35] was 104%. It also gave a viability, T/C [36] of 76.2%, a viability, T/C [47] of 64.6% and a viability, T/C [48] of 25.2%.
